According to patent US11564914B2, “Methods of treating bone loss” (THE REGENTS OF THE UNIVERSITY OF CALIFORNIA, priority 2016, dated 2023):

Experiments:
[1] = metabolic stability (method not given)
sEH = molecular target: T1, sEH (Homo sapiens, UniProt P34913); experiment: testing as sEH inhibitors (method not given); assay type: biochemical
T1 sequence (P34913 1-555): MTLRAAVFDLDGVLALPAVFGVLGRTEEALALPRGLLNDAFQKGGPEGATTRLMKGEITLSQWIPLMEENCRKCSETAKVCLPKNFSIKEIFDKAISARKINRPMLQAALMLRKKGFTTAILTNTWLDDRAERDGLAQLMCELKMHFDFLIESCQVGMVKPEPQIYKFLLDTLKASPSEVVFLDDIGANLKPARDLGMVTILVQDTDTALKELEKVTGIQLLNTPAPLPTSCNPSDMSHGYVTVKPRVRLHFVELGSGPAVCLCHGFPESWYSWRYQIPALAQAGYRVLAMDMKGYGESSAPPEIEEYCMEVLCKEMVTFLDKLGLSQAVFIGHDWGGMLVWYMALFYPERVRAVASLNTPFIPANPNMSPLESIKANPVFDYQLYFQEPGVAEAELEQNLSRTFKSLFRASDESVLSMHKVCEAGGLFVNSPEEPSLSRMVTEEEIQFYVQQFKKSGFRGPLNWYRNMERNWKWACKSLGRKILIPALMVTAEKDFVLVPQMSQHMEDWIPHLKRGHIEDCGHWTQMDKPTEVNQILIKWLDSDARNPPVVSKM

[2] = blood concentration of TPPU by LC-MS; assay type: in vivo; conditions: mouse, whole blood; mice, 24 h after last oral administration, after 15 days at 1 mg/kg/day
Method: The samples were taken at 24 h after the last oral gavage treatment. […] The results are expressed as mean±SD from six mice per group.
Animals orally received 1×10^9 CFU/ml of a diluted culture of freshly grown A. actinomycetemcomitans JP2, in a volume of 100 μl PBS containing 2% carboxymethylcellulose. The solution was placed into the oral cavity with a micropipette, and the procedure was repeated at 48 and 96 h after the first inoculation. Treatment with TPPU and EETs was initiated after the third inoculation of bacteria. The inhibitor was dissolved in PEG400 and administered at 1 mg/kg/day by oral gavage. For the treatment with EETs, we attempted to apply viscous solution of mixture of EET-methyl ester regioisomers dissolved in PEG400 to the gum tissue using a fine pipette at a dose of 1 μg/kg/day. The mice received the entire EET dose. This was done immediately before the oral gavage with both groups of mice receiving TPPU or mice receiving vehicle alone. Because EETs are unstable in stomach acid we assume exposure is largely topical or buccal. All treatments continued for 15 days. […] The negative control group consisted of uninfected mice (sham-infected), the positive control group was infected and received the vehicle only. One day after the treatment period (16th day), animals were sacrificed by cardiac puncture after anesthesia with xylazine/ketamine. […]

Row | metabolic stability [1] | activity as inhibitor of sEH (sEH) | concentration at 24 h [2] | Structure (SMILES)
1 | metabolically stable | particularly high activity |  | CCCCCCCCCCCCNC(=O)NC12CC3CC(CC(C3)C1)C2 [ADU, N-Adamantyl-N′-dodecyl urea]
2 |  |  | > 8000 ng/mL | CCC(=O)N1CCC(NC(=O)Nc2ccc(OC(F)(F)F)cc2)CC1 [TPPU, 1-trifluoromethoxyphenyl-3-(1-propionylpiperidin-4-yl) urea]
